Assays:
[1] = molecular target: T1, PPAT (phosphoribosyl pyrophosphate amidotransferase) (Homo sapiens, UniProt Q06203); assay: glutamate production from glutamine and PRPP, glutamate assay kit; format: biochemical
[2] = molecular target: T1, PPAT (phosphoribosyl pyrophosphate amidotransferase); assay: PPAT activity assay, presumably as above; format: biochemical

T1 sequence (Q06203 12-517): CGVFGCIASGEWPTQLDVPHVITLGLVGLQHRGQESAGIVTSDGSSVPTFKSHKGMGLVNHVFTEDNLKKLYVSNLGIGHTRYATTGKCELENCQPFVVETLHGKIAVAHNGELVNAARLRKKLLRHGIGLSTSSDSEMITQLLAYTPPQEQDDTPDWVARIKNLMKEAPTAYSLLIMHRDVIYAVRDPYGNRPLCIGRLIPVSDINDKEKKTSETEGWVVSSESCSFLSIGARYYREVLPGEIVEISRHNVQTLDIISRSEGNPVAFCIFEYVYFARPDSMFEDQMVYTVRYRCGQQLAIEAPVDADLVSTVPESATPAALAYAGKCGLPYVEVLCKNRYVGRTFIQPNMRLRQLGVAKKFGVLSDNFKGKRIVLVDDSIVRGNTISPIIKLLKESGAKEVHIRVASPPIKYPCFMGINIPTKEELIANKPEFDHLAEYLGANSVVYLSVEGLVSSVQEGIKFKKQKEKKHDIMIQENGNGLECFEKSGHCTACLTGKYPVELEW

Cc1cc2nc3c(=O)[nH]c(=O)nc-3n(C[C@H](O)[C@H](O)[C@H](O)COP(=O)(O)O)c2cc1C [ZINC8551105, riboflavin 5′-monophosphate]
IC50 [1]: 7.5 µM

Cc1cc2nc3c(=O)[nH]c(=O)nc-3n(C[C@H](O)[C@H](O)[C@H](O)CO)c2cc1C [riboflavin]
IC50 [2]: 49.9 µM

Source: article PMC9549714 (iScience, 2022)
